In this assay the target is Sirt6 (Homo sapiens, UniProt Q8N6T7). Kind of assay: Sirt6-dependent peptide deacetylation, FLUOR DE LYS / Sirt6 fluorometric activity kit. The format is biochemical. Particulars: mean ± SD, at least two independent experiments; for Activation Fold 30 μM: compound at 30 μM; for Activation Fold 100 μM: compound at 100 μM.

“And” between values parts separate entries of the source, which are not always exact repeats. Equal entries are not always repeated.

Sirt6, sequence (Q8N6T7 whole entry): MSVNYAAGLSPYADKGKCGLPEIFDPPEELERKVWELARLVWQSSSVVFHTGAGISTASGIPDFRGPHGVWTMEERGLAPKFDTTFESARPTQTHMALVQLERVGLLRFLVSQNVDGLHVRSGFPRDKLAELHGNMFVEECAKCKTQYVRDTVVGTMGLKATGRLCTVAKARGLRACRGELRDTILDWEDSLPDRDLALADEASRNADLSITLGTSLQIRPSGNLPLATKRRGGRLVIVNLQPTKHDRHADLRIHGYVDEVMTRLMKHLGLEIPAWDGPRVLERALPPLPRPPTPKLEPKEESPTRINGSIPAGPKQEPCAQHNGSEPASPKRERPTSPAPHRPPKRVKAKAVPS
Protocol: Sirt6/Sirt1/Sirt2/Sirt3 activity was tested by Activity Assay Kits (Abcam) according to the manufacturer's instruction with minor modification. […] All experiments were conducted at room temperature.

Turning to `c1ccc2c(c1)NC(c1cccnc1N1CCC(N3CCCC3)CC1)c1cccn1-2` (stereo not shown) [Compound 29, 4-(2-(4-(Pyrrolidin-1-yl)piperidin-1-yl)pyridin-3-yl)-4,5-dihydropyrrolo[1,2-a]quinoxaline], the “Activation Fold 30 μM” value is on record as 1.89 ± 0.01 fold; the “Activation Fold 100 μM” value is 3.44 fold and 3.44 ± 0.07 fold.

On to `CN(C)CCN1CCN(c2ncccc2C2Oc3ccccc3-n3cccc32)CC1` (stereo not shown) [Compound 66, 2-(4-(3-(4H-Benzo[b]pyrrolo[1,2-d][1,4]oxazin-4-yl)pyridin-2-yl)piperazin-1-yl)-N,N-dimethylethan-1-amine], for which the “Activation Fold 30 μM” value was 2.67 fold and 2.67 ± 0.01 fold; the “Activation Fold 100 μM” value is 4.23 fold and 4.23 ± 0.22 fold. On to `CN(C)CCN1CCN(c2ncccc2C2Oc3ccccc3-n3c2ccc3C(F)(F)F)CC1` (stereo not shown) [Compound 76, N,N-Dimethyl-2-(4-(3-(1-(trifluoromethyl)-4H-benzo[b]pyrrolo[1,2-d][1,4]oxazin-4-yl)pyridin-2-yl)piperazin-1-yl)ethan-1-amine], for which the “Activation Fold 30 μM” value was 2.69 ± 0.02 fold and the “Activation Fold 100 μM” value is listed as 4.20 ± 0.06 fold. The like results for `CN(C)CC(=O)N1CCN(c2ncccc2C2Nc3ccccc3-n3cccc32)CC1` (stereo not shown) [Compound 43, 1-(4-(3-(4,5-Dihydropyrrolo[1,2-a]quinoxalin-4-yl)pyridin-2-yl)piperazin-1-yl)-2-(dimethylamino)ethan-1-one] were, in that order, 2.31 ± 0.07 fold and 3.78 ± 0.15 fold.

Consider `FC1(F)CCN(c2ncccc2C2Nc3ccccc3-n3cccc32)CC1` (stereo not shown) [Compound 25, 4-(2-(4,4-Difluoropiperidin-1-yl)pyridin-3-yl)-4,5-dihydropyrrolo[1,2-a]quinoxaline], for which the “Activation Fold 100 μM” value is ~2 fold and 1.54 ± 0.03 fold. The same measure, in the same setting: next, `OC1CN(c2ncccc2C2Nc3ccccc3-n3cccc32)C1` (stereo not shown) [Compound 17, 1-(3-(4,5-Dihydropyrrolo[1,2-a]quinoxalin-4-yl)pyridin-2-yl)azetidin-3-ol]: 1.47 ± 0.10 fold. For `COCCCN1CCN(c2ncccc2C2Nc3ccccc3-n3cccc32)CC1` (stereo not shown) [Compound 37, 4-(2-(4-(3-Methoxypropyl)piperazin-1-yl)pyridin-3-yl)-4,5-dihydropyrrolo[1,2-a]quinoxaline], the “Activation Fold 30 μM” value was determined as 3.13 ± 0.14 fold and the “Activation Fold 100 μM” value stood at 5.02 ± 0.25 fold.

On to `CS(=O)(=O)N1CCN(c2ncccc2C2Nc3ccccc3-n3cccc32)CC1` (stereo not shown) [Compound 23, 4-(2-(4-(Methylsulfonyl)piperazin-1-yl)pyridin-3-yl)-4,5-dihydropyrrolo[1,2-a]quinoxaline], for which the “Activation Fold 30 μM” value was found to be 2.03 ± 0.02 fold; the “Activation Fold 100 μM” value is 3.63 fold and 3.63 ± 0.10 fold. In the case of `Clc1ncccc1C1Nc2ccccc2-n2cccc21` (stereo not shown) [Compound 14, 4-(2-Chloropyridin-3-yl)-4,5-dihydropyrrolo[1,2-a]quinoxaline], the “Activation Fold 100 μM” value is given as 1.04 ± 0.02 fold. Turning to `CN1C[C@@H]2CN(c3ncccc3C3Nc4ccccc4-n4cccc43)C[C@@H]2C1` (stereo partly drawn) [Compound 20, 4-(2-((3aR,6aS)-5-Methylhexahydropyrrolo[3,4-c]pyrrol-2(1H)-yl)pyridin-3-yl)-4,5-dihydropyrrolo[1,2-a]quinoxaline], the “Activation Fold 30 μM” value stood at 2.00 ± 0.11 fold and the “Activation Fold 100 μM” value came out at 4.24 ± 0.04 fold. Consider `O=C1CCCN1CCN1CCN(c2ncccc2C2Nc3ccccc3-n3cccc32)CC1` (stereo not shown) [Compound 48, 1-(2-(4-(3-(4,5-Dihydropyrrolo[1,2-a]quinoxalin-4-yl)pyridin-2-yl)piperazin-1-yl)ethyl)pyrrolidin-2-one], for which the “Activation Fold 30 μM” value is on record as 3.48 ± 0.02 fold and the “Activation Fold 100 μM” value is given as 5.64 ± 0.43 fold.

On to `CC(=O)N1CCN(c2ncccc2C2Nc3ccccc3-n3cccc32)CC1` (stereo not shown) [Compound 22, 1-(4-(3-(4,5-Dihydropyrrolo[1,2-a]quinoxalin-4-yl)pyridin-2-yl)piperazin-1-yl)ethan-1-one], for which the “Activation Fold 30 μM” value stood at 1.60 ± 0.01 fold; the “Activation Fold 100 μM” value is 2.74 fold and 2.74 ± 0.10 fold. With `CN1CCCN(c2ncccc2C2Nc3ccccc3-n3cccc32)CC1` (stereo not shown) [Compound 19, 4-(2-(4-Methyl-1,4-diazepan-1-yl)pyridin-3-yl)-4,5-dihydropyrrolo[1,2-a]quinoxaline], the “Activation Fold 30 μM” value is on record as 2.18 ± 0.02 fold and the “Activation Fold 100 μM” value is 4.23 ± 0.06 fold. Consider `NC(=O)CN1CCN(c2ncccc2C2Nc3ccccc3-n3cccc32)CC1` (stereo not shown) [Compound 41, 2-(4-(3-(4,5-Dihydropyrrolo[1,2-a]quinoxalin-4-yl)pyridin-2-yl)piperazin-1-yl)acetamide], for which the “Activation Fold 30 μM” value amounted to 1.73 ± 0.12 fold and the “Activation Fold 100 μM” value came out at 3.43 ± 0.48 fold. The like results for `N#CCN1CCN(c2ncccc2C2Nc3ccccc3-n3cccc32)CC1` (stereo not shown) [Compound 40, 2-(4-(3-(4,5-Dihydropyrrolo[1,2-a]quinoxalin-4-yl)pyridin-2-yl)piperazin-1-yl)acetonitrile] were, in that order, 2.37 ± 0.04 fold and 4.74 ± 0.26 fold. Regarding `CN(C)c1ncccc1C1Nc2ccccc2-n2cccc21` (stereo not shown) [Compound 15, 3-(4,5-Dihydropyrrolo[1,2-a]quinoxalin-4-yl)-N,N-dimethylpyridin-2-amine], the “Activation Fold 100 μM” value stood at 1.08 ± 0.09 fold. Consider `CN(C)CCN1CCN(c2ncccc2C2Oc3cc(CO)ccc3-n3cccc32)CC1` (stereo not shown) [Compound 72, (4-(2-(4-(2-(Dimethylamino)ethyl)piperazin-1-yl)pyridin-3-yl)-4H-benzo[b]pyrrolo[1,2-d][1,4]oxazin-7-yl)methanol], for which the “Activation Fold 30 μM” value was 1.59 ± 0.03 fold; the “Activation Fold 100 μM” value was 2.69 fold and 2.69 ± 0.03 fold. Turning to `c1ccc2c(c1)NC(c1cccnc1N1CCC1)c1cccn1-2` (stereo not shown) [Compound 16, 4-(2-(Azetidin-1-yl)pyridin-3-yl)-4,5-dihydropyrrolo[1,2-a]quinoxaline], the “Activation Fold 100 μM” value was 1.38 ± 0.11 fold.

`c1ccc2c(c1)NC(c1cccnc1N1CCCC1)c1cccn1-2` (stereo not shown) [Compound 18, 4-(2-(Pyrrolidin-1-yl)pyridin-3-yl)-4,5-dihydropyrrolo[1,2-a]quinoxaline]: the “Activation Fold 100 μM” value is listed as 1.22 ± 0.03 fold. Take `O=S1(=O)CCN(c2ncccc2C2Nc3ccccc3-n3cccc32)CC1` (stereo not shown) [Compound 26, 4-(3-(4,5-Dihydropyrrolo[1,2-a]quinoxalin-4-yl)pyridin-2-yl)thiomorpholine 1,1-dioxide]: the “Activation Fold 30 μM” value was determined as 1.32 ± 0.01 fold; the “Activation Fold 100 μM” value is ~2 fold and 2.24 ± 0.09 fold. On to `COC(=O)c1ccc2c(c1)OC(c1cccnc1N1CCN(CCN(C)C)CC1)c1cccn1-2` (stereo not shown) [Compound 71, Methyl 4-(2-(4-(2-(dimethylamino)ethyl)piperazin-1-yl)pyridin-3-yl)-4H-benzo[b]pyrrolo[1,2-d][1,4]oxazine-7-carboxylate], for which the “Activation Fold 30 μM” value turned out to be 4.16 ± 0.18 fold and the “Activation Fold 100 μM” value stood at 4.82 ± 0.14 fold.

For the compound `COc1ccc2c(c1)-n1cccc1C(c1cccnc1N1CCN(CCN(C)C)CC1)O2` (stereo not shown) [Compound 69, 2-(4-(3-(8-Methoxy-4H-benzo[b]pyrrolo[1,2-d][1,4]oxazin-4-yl)pyridin-2-yl)piperazin-1-yl)-N,N-dimethylethan-1-amine], the “Activation Fold 30 μM” value was 4.51 ± 0.06 fold and the “Activation Fold 100 μM” value is listed as 5.65 ± 0.22 fold. With `O=C(N1CCN(c2ncccc2C2Nc3ccccc3-n3cccc32)CC1)N1CC(O)C1` (stereo not shown) [Compound 44, (4-(3-(4,5-Dihydropyrrolo[1,2-a]quinoxalin-4-yl)pyridin-2-yl)piperazin-1-yl)(3-hydroxyazetidin-1-yl)methanone], the “Activation Fold 30 μM” value was 2.67 fold and 2.67 ± 0.19 fold; the “Activation Fold 100 μM” value is 5.26 fold and 5.26 ± 0.13 fold. Turning to `OC1CCN(c2ncccc2C2Nc3ccccc3-n3cccc32)CC1` (stereo not shown) [Compound 27, 1-(3-(4,5-Dihydropyrrolo[1,2-a]quinoxalin-4-yl)pyridin-2-yl)piperidin-4-ol], the “Activation Fold 30 μM” value was 1.29 ± 0.05 fold; the “Activation Fold 100 μM” value was ~2 fold and 2.38 ± 0.15 fold. For the compound `CN1CCN(c2ncccc2C2Nc3ccccc3-n3cccc32)CC1` (stereo not shown) [Compound 21, 4-(2-(4-Methylpiperazin-1-yl)pyridin-3-yl)-4,5-dihydropyrrolo[1,2-a]quinoxaline], the “Activation Fold 30 μM” value was 2.44 fold and 2.44 ± 0.04 fold; the “Activation Fold 100 μM” value was 4.62 fold and 4.62 ± 0.12 fold.

Consider `O=C(CCl)N1CCN(c2ncccc2C2Nc3ccccc3-n3cccc32)CC1` (stereo not shown) [Compound 42, 2-Chloro-1-(4-(3-(4,5-dihydropyrrolo[1,2-a]quinoxalin-4-yl)pyridin-2-yl)piperazin-1-yl)ethan-1-one], for which the “Activation Fold 30 μM” value was 1.93 ± 0.02 fold and the “Activation Fold 100 μM” value is on record as 2.84 ± 0.28 fold. For the compound `CN(C)CCN1CCN(c2ncccc2C2Oc3ccc(F)cc3-n3cccc32)CC1` (stereo not shown) [Compound 70, 2-(4-(3-(8-Fluoro-4H-benzo[b]pyrrolo[1,2-d][1,4]oxazin-4-yl)pyridin-2-yl)piperazin-1-yl)-N,N-dimethylethan-1-amine], the “Activation Fold 30 μM” value was found to be 1.84 ± 0.04 fold; the “Activation Fold 100 μM” value was 2.53 fold and 2.53 ± 0.05 fold. Turning to `c1ccc2c(c1)NC(c1cccnc1N1CCN(CCN3CCOCC3)CC1)c1cccn1-2` (stereo not shown) [Compound 49, 4-(2-(4-(3-(4,5-Dihydropyrrolo[1,2-a]quinoxalin-4-yl)pyridin-2-yl)piperazin-1-yl)ethyl)morpholine], the “Activation Fold 30 μM” value is listed as 3.02 ± 0.04 fold and the “Activation Fold 100 μM” value came to 5.99 ± 0.21 fold. In the same order, the values of `CN(C)C(=O)CN1CCN(c2ncccc2C2Nc3ccccc3-n3cccc32)CC1` (stereo not shown) [Compound 39, 2-(4-(3-(4,5-Dihydropyrrolo[1,2-a]quinoxalin-4-yl)pyridin-2-yl)piperazin-1-yl)-N,N-dimethylacetamide] are 3.21 ± 0.06 fold and 6.60 ± 0.22 fold.

The values above are taken from US20240327411A1, “SIRT6 ACTIVATORS” (The Board of Regents of The University of Texas System, priority 2022, published 2024).
